{"source": "paper PMC12013189", "about": "“Phospho-regulated tethering of focal adhesion kinase to vinculin links force transduction to focal adhesion signaling” (Cell Communication and Signaling : CCS, 2025)", "key": {"FAT-WT and Vin-T": {"tested_on": "FAT-WT and Vin-T", "assay": "svAUC peak integration, FAT-WT+LD2/4+Vin-T", "type": "binding, human", "experimental": "(§1) For svAUC experiments, FAT and Vin-T proteins at 30 µM were incubated with 10 µM LD2/4 peptide in 20 mM Tris pH 7.5, 200 mM NaCl, 5% Glycerol and 1 mM TCEP. svAUC was performed at 20 °C at 48,000 rpm (Vin-T + LD1 + LD2, Fig. S2) or 58,000 rpm (FAT + LD2/4 + Vin-T; Fig. 3) in a XL-I analytical ultracentrifuge (Beckman-Coulter Inc.) equipped with both UV-VIS absorbance and Raleigh interference detection systems, using an An-50Ti rotor, and Epon-charcoal standard double-sector centerpieces (optical pathlength 12 mm or 4 mm for measurements at 100 µM shown in Fig. S2). Sedimentation profiles were recorded at 280 nm. Differential sedimentation coefficient distributions were calculated by least-squares boundary modelling of sedimentation velocity data using the continuous distribution c(s) Lamm equation model as implemented by SEDFIT [46]. These s values were corrected to standard conditions (water, 20 °C, and infinite dilution) using the program SEDNTERP [32] to get the corresponding standard s values (s20,w)."}, "FAT-H14": {"tested_on": "FAT-H14", "assay": "svAUC peak integration, FAT-H14+LD2/4", "type": "binding, human", "conditions": "30 µM FAT-H14 + 10 µM LD2/4", "experimental": "as §1"}, "[1]": {"target": "T1, FAT domain of FAK (hFAK904-1052 WT) (Homo sapiens, UniProt Q05397)", "T1 construct": "Expression plasmids for FAT (hFAK904-1052 WT and mutants H14, H23 and H14-23); 6xHis (TEV cleavable) (N, cleaved yes); made in house; host or cells: E. coli BL21(DE3)", "T1 sequence (Q05397 904-1052)": "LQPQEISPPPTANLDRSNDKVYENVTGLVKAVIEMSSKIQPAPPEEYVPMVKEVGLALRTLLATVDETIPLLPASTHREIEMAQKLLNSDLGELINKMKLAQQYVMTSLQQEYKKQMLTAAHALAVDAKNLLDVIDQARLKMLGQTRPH", "assay": "Fluorescence anisotropy binding of FITC LD peptides to FAT-WT", "conditions": "versus single LD motifs", "source_text": "Expression plasmids for FAT (hFAK904-1052 WT and mutants H14, H23 and H14-23), Vin-FL (hVinculin1-1066) and Vin-T (hVinculin891-1066) were ordered from GenScript in the pET28(+) vector, adding a TEV cleavable N-terminal 6xHis tag to the expressed proteins. Mutant FAT-H14 contains the mutations I936A, H1025A, K1032A; FAT-H23 contains the mutations K955A, R962A, I998A and FAT-14-23 contains the combined mutations I936A, K955A, R962A, I998A, H1025A, K1032A. All plasmids were introduced into E.coli strain BL21(DE3) for expression. Cells were grown in LB media, induced with 1 mM IPTG at an OD (600 nm) of 0.6 and grown over night at 20 °C. Cells were pelleted at 6000 rpm and resuspended in 20 mM Tris pH8, 200 mM NaCl, 5% Glycerol, 10 mM imidazole, 2mM TCEP, 1mM PMSF supplemented with cOmplete protein inhibitor cocktail (Roche). Cells were lysed by sonication and insoluble components removed by centrifugation at 40 K for 1 h at 4 °C. Soluble lysates were cleared through 0.45 μm filters and loaded onto His-Trap affinity columns (Cytiva), washed with step gradients up to 30 mM imidazole and eluted with a gradient up to 500 mM imidazole. Peak-fractions were digested over night with TEV protease (molar ratio ~ 1: 20) at 4 °C. Proteins were diluted to 50 mM NaCl and loaded onto a Source 15Q column, washed with 20 mM Tris pH8, 50 mM NaCl, 5% Glycerol, 1mM TCEP and eluted with a gradient up to 1 M NaCl. Peak fractions were mixed with 1 ml of Ni-NTA beads to remove TEV and uncleaved protein, adding 10 mM imidazole to prevent non-specific binding. The flow-through was concentrated, loaded onto a Superdex200 16/60 column and eluted in 20 mM Tris pH8, 200 mM NaCl, 5% Glycerol, 2mM TCEP. Peak fractions were concentrated, aliquots flash frozen in LN2 and stored at -80 °C.\n(§2) Binding curves were determined in a total of 20 µl in black 384 well plates, by titrating protein concentrations (typically up to 50 µM) at a fixed concentration of 25 nM FITC labelled LD peptides (Apeptide Co. Ltd) in 20 mM Tris pH7.5, 150 mM NaCl, 1mM TCEP. Anisotropy measurements were preformed at 22 °C on a Spark® Multimode microplate reader (Tecan) with polarizers, at an excitation wavelength of 485 nm and an emission wavelength of 535 nm (20 nm bandwidth). KD values were extracted by fitting a one-site binding model using the GraphPad Prism software, using the equation: Y = Bmax*X/(KD + X), where Y is the measured anisotropy, X the protein concentration and Bmax the maximal anisotropy value at binding saturation."}, "[2]": {"tested_on": "GST-Vin-T and His-FAT-H14", "assay": "GST-pulldown of His-FAT with GST-Vin-T and LD2/4", "type": "binding, human", "conditions": "30 µM GST-Vin-T, 10 µM LD2/4, 30 µM His-FAT, western blot anti-His", "experimental": "30 µM GST-Vin-T, 10 µM LD2/4 and 30 µM His-FAT proteins were incubated with glutathione sepharose beads for 1 h, centrifuged for 1 min at […] and washed 3x with 20 mM Tris pH 7.5, 150 mM NaCl, 0.1% Nonidet P40. Proteins co-sedimented with beads were resuspended in SDS Laemmli buffer, heated to 96 °C for 5 min and subjected to SDS-PAGE and western blotting. His-FAT proteins (WT or mutants) were detected using a primary mouse anti-His antibody (Proteintech) and a secondary HRP conjugated goat anti-mouse antibody (Merck)."}, "[3]": {"tested_on": "FAT-H14-23 (I936A, K955A, R962A, I998A, H1025A, K1032A)", "assay": "Fluorescence anisotropy binding to FAT-H14-23 mutant", "set-up": "species or system human", "conditions": "both sites mutated", "source_text": "Expression plasmids for FAT (hFAK904-1052 WT and mutants H14, H23 and H14-23), Vin-FL (hVinculin1-1066) and Vin-T (hVinculin891-1066) were ordered from GenScript in the pET28(+) vector, adding a TEV cleavable N-terminal 6xHis tag to the expressed proteins. Mutant FAT-H14 contains the mutations I936A, H1025A, K1032A; FAT-H23 contains the mutations K955A, R962A, I998A and FAT-14-23 contains the combined mutations I936A, K955A, R962A, I998A, H1025A, K1032A. All plasmids were introduced into E.coli strain BL21(DE3) for expression. Cells were grown in LB media, induced with 1 mM IPTG at an OD (600 nm) of 0.6 and grown over night at 20 °C. […]\nas §2"}, "FAT-H23 and Vin-T": {"tested_on": "FAT-H23 and Vin-T", "assay": "svAUC peak integration, FAT-H23+LD2/4+Vin-T", "type": "binding, human", "conditions": "30 µM FAT-H23 + 10 µM LD2/4 + 30 µM Vin-T", "experimental": "as §1"}, "FAT-H23": {"tested_on": "FAT-H23", "assay": "svAUC peak integration, FAT-H23+LD2/4", "type": "binding, human", "conditions": "30 µM FAT-H23 + 10 µM LD2/4", "experimental": "as §1"}, "FAT-H14 and Vin-T": {"tested_on": "FAT-H14 and Vin-T", "assay": "svAUC peak integration, FAT-H14+LD2/4+Vin-T", "type": "binding, human", "conditions": "30 µM FAT-H14 + 10 µM LD2/4 + 30 µM Vin-T", "experimental": "as §1"}, "Vin-T": {"tested_on": "Vin-T", "assay": "svAUC peak integration, Vin-T+LD2/4", "type": "binding, human", "conditions": "30 µM Vin-T + 10 µM LD2/4", "experimental": "as §1"}, "FAT-WT": {"tested_on": "FAT-WT", "assay": "svAUC peak integration, FAT-WT+LD2/4", "type": "binding, human", "experimental": "as §1"}, "[4]": {"conditions": "30 µM FAT-WT + 10 µM LD2/4 + 30 µM Vin-T"}, "[5]": {"conditions": "30 µM FAT-WT + 10 µM LD2/4, 20 °C, 280 nm"}}}
{"sequence": "SNLSELDRLLLELNAVQHNGSGSGGSGGSGGSGGSGGSGGSGGSGGSATRELDELMASLSD [LD2/4]", "values": [{"measurement": "c(Peak 2) [1-2 s(S)]", "setting": "FAT-WT and Vin-T; [4]", "result": 0.68}, {"measurement": "c(total)", "setting": "FAT-WT and Vin-T; [4]", "result": 1.08}, {"measurement": "c(Peak 3) [ >2 s(S)]", "setting": "FAT-WT and Vin-T; 30 µM FAT-WT + 10 µM LD2/4 + 30 µM Vin-T, ~2.4 S peak", "result": 0.40}, {"measurement": "amount (c) of tripartite FAT:LD2/4:Vin-T complex", "setting": "FAT-WT and Vin-T; difference of 2.4 S peak in presence and absence of Vin-T, FAT-WT", "result": "≈ 0.25"}, {"measurement": "c(Peak 1) [~ 1 s(S)]", "setting": "FAT-H14", "result": 0.11}, {"measurement": "c(Peak 2) [1-2 s(S)]", "setting": "FAT-H14", "result": 0.45}, {"measurement": "c(Peak 3) [ >2 s(S)]", "setting": "FAT-H14", "result": 0.05}, {"measurement": "c(total)", "setting": "FAT-H14", "result": 0.61}, {"measurement": "increase of affinity for FAT by presence of both LD motifs", "setting": "[1]", "result": "approximately 15 fold"}, {"measurement": "His-FAT-H14 pulled down with GST-Vin-T", "setting": "[2]", "result": "only pulled down in the presence of the LD2/4 peptide"}, {"measurement": "binding to FAT-H14-23, in words", "setting": "[3]", "result": "no significant binding"}, {"measurement": "c(Peak 1) [~ 1 s(S)]", "setting": "FAT-H23 and Vin-T", "result": 0.08}, {"measurement": "c(Peak 2) [1-2 s(S)]", "setting": "FAT-H23 and Vin-T", "result": 0.80}, {"measurement": "c(total)", "setting": "FAT-H23 and Vin-T", "result": 1.18}, {"measurement": "c(Peak 3) [ >2 s(S)]", "setting": "FAT-H23 and Vin-T; ~2.3 S peak", "result": "0.30 and ≈ 0.30"}, {"measurement": "c(Peak 1) [~ 1 s(S)]", "setting": "FAT-H23", "result": 0.11}, {"measurement": "c(Peak 2) [1-2 s(S)]", "setting": "FAT-H23", "result": 0.45}, {"measurement": "c(Peak 3) [ >2 s(S)]", "setting": "FAT-H23", "result": 0.03}, {"measurement": "c(total)", "setting": "FAT-H23", "result": 0.59}, {"measurement": "c(Peak 2) [1-2 s(S)]", "setting": "FAT-H14 and Vin-T", "result": 0.57}, {"measurement": "c(total)", "setting": "FAT-H14 and Vin-T", "result": 1.09}, {"measurement": "c(Peak 3) [ >2 s(S)]", "setting": "FAT-H14 and Vin-T; 2.4 S peak", "result": 0.52}, {"measurement": "c(Peak 1) [~ 1 s(S)]", "setting": "Vin-T", "result": 0.18}, {"measurement": "c(Peak 2) [1-2 s(S)]", "setting": "Vin-T", "result": 0.59}, {"measurement": "c(total)", "setting": "Vin-T", "result": 0.77}, {"measurement": "c(total)", "setting": "FAT-WT; 30 µM FAT-WT + 10 µM LD2/4", "result": 0.58}, {"measurement": "c(Peak 1) [~ 1 s(S)]", "setting": "FAT-WT; [5]", "result": 0.06}, {"measurement": "c(Peak 2) [1-2 s(S)]", "setting": "FAT-WT; [5]", "result": 0.37}, {"measurement": "c(Peak 3) [ >2 s(S)]", "setting": "FAT-WT; 30 µM FAT-WT + 10 µM LD2/4, ~2.4 S peak, absence of Vin-T", "result": 0.15}]}
